These results are taken from patent US11793748B1, “Pharmaceutical compositions of aspirin for parenteral administration” (GOOD HEALTH, LLC, priority 2019, dated 2023).

Series [1] in a line: Stability of recrystallized aspirin powder. The following applies: for % Assay / % S.A (salicylic acid impurity): 6 months 40° C./75% RH.
A short description of series [2]: Reconstitution trials for micronized aspirin with aqueous solutions containing bases. Type of series: physicochemical. Conditions: aspirin 5.0 mg/mL; reconstitution with meglumine. As for the experimental part:
[…] […] Shaken up and down vigorously to check reconstitution and clarity.
The reconstitution of higher doses of aspirin with aqueous solutions of bases indicate superiority using a combination of meglumine and sodium citrate over same bases used separately.
Therefore, these dilute solutions of the invention are suitable for slow infusion for a longer time. For example, the infusion can be made over 30 minutes to about 100 minutes with an infusion rate of about 3 mL/min to 0.8 mL/min. The rate of infusion of the invention can depend on the clinical conditions of patients, and can be modified as necessary. In certain cases, a bolus injection of concentrated aspirin solutions may be required. The aspirin solution (50 mg/mL) of the invention can be given as a bolus injection (e.g., 10 mL within 2-5 minutes).

Series [3] in a line: Solubility testing of aspirin in commonly used co-solvents. Conditions: 120 mg/3 mL; for Reconstitution time for milled API (Approx. 124 μm, BSS Sieve 120 passed): after shaking. It is filed as physicochemical. As for the experimental part: The solubility of aspirin was determined using propylene glycol and polyethylene glycol (PEG-300 and PEG-400), which are widely used in intravenous formulations.

The nature of series [4]: Stability of reconstituted aspirin solutions by HPLC. It is filed as physicochemical. The method, then:
Stability was determined by HPLC analysis using the following parameters:
Mobile Phase: Solution containing 15% acetonitrile and 85% water with 2 g/L of heptanesulfonate sodium. The pH of the solution was adjusted to 3.4.
Injection volume: 10 μl, the concentration of aspirin in sample and standard injections were maintained at about 0.5 mg/mL.
The stability of Trials 3-5 was tested using the HPLC method described above.

The conditions of series [5]: solubilization accompanied by aspirin degradation; cited from earlier work.
Series [6] can be described thus: Effect of lactose and mannitol combination on reconstitution time. It is filed as physicochemical. The following applies: aspirin 80 mg (120 sieve passed). As for the experimental part:
A mixture of lactose and mannitol were tried to improve reconstitution time. Diluents were then prepared by dissolving base and sugars in water and followed by addition of PEG 300. The diluent was transferred to a vial containing aspirin, and the vial was shaken in a swirling motion.

Series [7] is described as follows: Effect of bases on reconstitution time for aspirin in propylene glycol. Type of series: physicochemical. The following applies: aspirin 40 mg/mL, with shaking. The method, then: Solutions of propylene glycol with different bases were prepared by sonicating mixtures of propylene glycol and bases. Aspirin was added to those solutions and shaken in a circular motion.

Series [8] is described as follows: Reconstitution time for aspirin-lactose premix. Type of series: physicochemical. The following applies: aspirin 80 mg + 160 mg lactose premix (both 120 sieve passed), water 1.5 ml. The source says:
[…] The diluent was transferred to a vial containing aspirin triturated with lactose. The mixture was shaken in the vial in a swirling motion.

Series [9] is described as follows: Solubility and reconstitution of aspirin in semi-aqueous diluents. The following applies: aspirin 80 mg (sieve 120 mesh passed), after shaking for 5 minutes. Type of series: physicochemical. The method, then: Diluent solutions were prepared by mixing solvent and water. Aspirin was added and the vials were shaken in a swirling motion.
The conditions of series [10]: bicin, tricin, CAPS, TAPS, HEPES and AMPSO buffers; remained as suspended particles; cited from earlier work.
Series [11] can be described thus: Effect of lactose on reconstitution time in solvent-water mixture. It is filed as physicochemical. Conditions: aspirin 80 mg, lactose 80 mg. As for the experimental part: Diluent Preparation: Water, lactose, and base were taken in a vial and sonicated until a clear solution is formed. Solvent was then added and mixed for a minute. To these diluents, aspirin was added and shaken in a swirling motion.

The mark [12] stands for this setting: Aspirin API, not reconstituted (reference line of stability tables).
The mark [13] stands for this setting: Lysine 40 mg, lactose 80 mg + mannitol 80 mg, water 1.2 ml + PEG-300 1.8 ml.
Setting [14] is: Meglumine 40 mg, lactose 20 mg + mannitol 60 mg, distilled water 1.2 ml + PEG 300 1.8 ml.
Setting [15] is: Meglumine 40 mg, lactose 20 mg + mannitol 60 mg, distilled water 1.5 ml + PEG 300 1.5 ml.
The mark [16] stands for this setting: Meglumine 40 mg, lactose 20 mg + mannitol 60 mg, distilled water 1.8 ml + PEG 300 1.2 ml.
The mark [17] stands for this setting: Tris 40 mg, lactose 20 mg + mannitol 60 mg, distilled water 1.2 ml + PEG 300 1.8 ml.
The mark [18] stands for this setting: Tris 40 mg, lactose 20 mg + mannitol 60 mg, distilled water 1.5 ml + PEG 300 1.5 ml.
The mark [19] stands for this setting: Tris 40 mg, lactose 20 mg + mannitol 60 mg, distilled water 1.8 ml + PEG 300 1.2 ml.
Where [20] appears, read: Tris 40 mg, lactose 80 mg + mannitol 80 mg, water 1.2 ml + PEG-300 1.8 ml.
Setting [21] is: Tris 40 mg, lactose 80 mg + mannitol 80 mg, water 1.5 ml + PEG-300 1.5 ml.
The mark [22] stands for this setting: Tris 40 mg, lactose 80 mg + mannitol 80 mg, water 1.8 ml + PEG-300 1.2 ml.
The mark [23] stands for this setting: Lysine 40 mg, water 1.8 ml + PEG 300 1.2 ml.
Where [24] appears, read: Lysine 40 mg, water 1.8 ml + PEG 400 1.2 ml.
Where [25] appears, read: Tris 40 mg, water 1.8 ml + PEG 300 1.2 ml.
[26] abbreviates: Tris 40 mg, water 1.8 ml + PEG 400 1.2 ml.

For the compound `CC(=O)Oc1ccccc1C(=O)O` [Recrystallization from Acetone], in series [1] (recrystallized powder), the “% Assay” value is 97.20% and the “% S.A (salicylic acid impurity)” value is on record as 0.505%.
`CC(=O)Oc1ccccc1C(=O)O` [Recrystallization from Isopropanol]: the “% Assay” value in series [1] (recrystallized powder) came out at 99.35%.
For `CC(=O)Oc1ccccc1C(=O)O` [Recrystallization from Ethanol], in series [1] (recrystallized powder), the “% Assay” value is recorded as 97.72% and the “% S.A (salicylic acid impurity)” value is recorded as 0.452%. Also, in series [1] (recrystallized powder, accelerated conditions (6 months 40° C./75% RH)), the “stability at accelerated conditions” value is recorded as “stable”.
`CC(=O)Oc1ccccc1C(=O)O` [Aspirin, aspirin]: the “time to clear solution on reconstitution” value in series [2] is at most 2 min. Further, the “Reconstitution time for unmilled Aspirin” value in series [3] (PEG-300), in series [3] (PEG-400) and in [3] (propylene glycol) was “Not easily soluble,” in each case. Also, the “Reconstitution time for milled API (Approx. 124 μm, BSS Sieve 120 passed)” value in series [3] (PEG-300) is “Soluble in 3 minutes,”; in series [3] (PEG-400), “Soluble in 3 minutes,”; in series [3] (propylene glycol), “Soluble in 3 minutes,”; in series [7] (propylene glycol with 10 mg/mL Arginine), 3 minutes with shaking; in series [7] (propylene glycol with 10 mg/mL Lysine), 1.40 minutes with shaking; in [7] (propylene glycol with 10 mg/mL Meglumine) it was 2 minutes with shaking. The “Reconstitution time for milled API (Approx. 124 μm, BSS Sieve 120 passed)” value in [7] (propylene glycol with 10 mg/mL Tromethamine) worked out at 1.45 minutes with shaking. Besides, the “% Salicylic acid” value in [4] (setting [12]) came to 0.24%. In [4] (setting [12]), this compound yielded an Aspirin peak purity of 99.76%. For the same compound, the “period for which reconstituted aspirin was stable” value in series [4] (higher concentration (50 mg/mL), aqueous solution containing both meglumine and sodium citrate, 2-8° C.) is “about 5 hours”. Moreover, the “solubility in aqueous alkali hydroxide solutions and aqueous bicarbonate solutions” value in series [5] is given as “soluble”. The Observation entry in series [6] (setting [13]) is “hazy”; in series [6] (setting [14]), “hazy”; in series [6] (setting [15]) it was “Clear”; in series [6] (setting [16]), “Clear”; in series [6] (setting [17]), “Clear”; in series [6] (setting [18]), “Clear”. The Observation result is “Clear” in series [6] (setting [19]); “hazy” in series [6] (setting [20]); “Clear” in series [6] (setting [21]); “Clear” in series [6] (setting [22]); “Clear” in [8] (Tris 30 mg); “Clear” in series [8] (Tris 35 mg). Moreover, the Observation entry in series [8] (Tris 40 mg) is on record as “Clear”; in [8] (Tris 50 mg), “hazy”; in series [9] (1.8 mL PEG 300 + 1.2 mL water), “Turbid with particles”; in series [9] (1.8 mL PEG 400 + 1.2 mL water), “Turbid with particles”; in series [9] (1.8 mL propylene glycol + 1.2 mL water), “Turbid with particles”; in series [11] (setting [23]), “Clear”. Also, the Observation entry in series [11] (setting [24]), in [11] (setting [25]) and in [11] (setting [26]) was “Clear” each time. For the same compound, the Reconstitution time in series [6] (setting [13]) came out at 2.00 min; in series [6] (setting [14]) it was 2.00 min; in [6] (setting [15]), 2.20 min; in [6] (setting [16]), 2.30 min; in [6] (setting [17]) it was 2.00 min; in series [6] (setting [18]) it was 2.10 min. For the same compound, the Reconstitution time stood at 2.30 min in series [6] (setting [19]); 2.10 min in [6] (setting [20]); 2.25 min in series [6] (setting [21]); 2.10 min in series [6] (setting [22]); 2.00 min in series [8] (Tris 30 mg); 1.25 min in [8] (Tris 35 mg). Also, the Reconstitution time in [8] (Tris 40 mg) was 1.00 min; in series [8] (Tris 50 mg), 1.40 min; in series [11] (setting [23]), 3.15 min; in series [11] (setting [24]), 3.50 min; in series [11] (setting [25]), 3.20 min; in series [11] (setting [26]), 2.40 min. Further, the “solubility in aqueous buffers” value in series [10] is on record as “poor”. Moreover, in series [1] (room temperature, inferred from accelerated stability data), the “period stable at room temperature” value is reported as “at least 2 years”.
